# Test results: PubChem BioAssay (NCI)
# Values joined by “and” are separate entries in the source; they are usually repeats but may differ in a detail not shown here. Equal entries are not always repeated.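 Method: 48-hour compound exposure of cells in 96-well plates, five concentrations, linear interpolation of endpoints. GI50 = concentration required for 50% inhibition of growth. TGI marks complete inhibition of growth.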
# How the values were obtained:
# Experiment in all cases: NCI anticancer screen, dose series, 48 h
# BT-549 breast = test system: BT-549 breast
# NCI-H522 lung = test system: NCI-H522 lung
# HT29 colon = test system: HT29 colon
# RXF 393 renal = test system: RXF 393 renal
# SN12C renal = test system: SN12C renal
# SK-MEL-2 melanoma = test system: SK-MEL-2 melanoma
# SK-MEL-28 melanoma = test system: SK-MEL-28 melanoma
# MDA-MB-231 breast = test system: MDA-MB-231 breast
# NCI/ADR-RES ovarian = test system: NCI/ADR-RES ovarian
# OVCAR-5 ovarian = test system: OVCAR-5 ovarian
# IGROV1 ovarian = test system: IGROV1 ovarian
# SW-620 colon = test system: SW-620 colon
# SF-268 CNS = test system: SF-268 CNS
# DU-145 prostate = test system: DU-145 prostate
# SF-295 CNS = test system: SF-295 CNS
# HCT-15 colon = test system: HCT-15 colon
# SF-539 CNS = test system: SF-539 CNS
# CAKI-1 renal = test system: CAKI-1 renal
# OVCAR-4 ovarian = test system: OVCAR-4 ovarian
# HL-60(TB) leukemia = test system: HL-60(TB) leukemia
# KM12 colon = test system: KM12 colon
# UACC-62 melanoma = test system: UACC-62 melanoma
# M14 melanoma = test system: M14 melanoma
# UO-31 renal = test system: UO-31 renal
# 786-0 renal = test system: 786-0 renal
# NCI-H23 lung = test system: NCI-H23 lung
# MALME-3M melanoma = test system: MALME-3M melanoma
# OVCAR-8 ovarian = test system: OVCAR-8 ovarian
# CCRF-CEM leukemia = test system: CCRF-CEM leukemia
# NCI-H460 lung = test system: NCI-H460 lung
# HCC-2998 colon = test system: HCC-2998 colon
# RPMI-8226 leukemia = test system: RPMI-8226 leukemia
# HCT-116 colon = test system: HCT-116 colon
# SNB-75 CNS = test system: SNB-75 CNS
# MDA-MB-435 = test system: MDA-MB-435
# ACHN renal = test system: ACHN renal
# SK-MEL-5 melanoma = test system: SK-MEL-5 melanoma
# OVCAR-3 ovarian = test system: OVCAR-3 ovarian
# COLO 205 colon = test system: COLO 205 colon
# A498 renal = test system: A498 renal
# NCI-H226 lung = test system: NCI-H226 lung
# SK-OV-3 ovarian = test system: SK-OV-3 ovarian
# UACC-257 melanoma = test system: UACC-257 melanoma
# HOP-92 NSCLC = test system: HOP-92 NSCLC
# PC-3 prostate = test system: PC-3 prostate
# TK-10 renal = test system: TK-10 renal
# U251 CNS = test system: U251 CNS
# A549 NSCLC = test system: A549 NSCLC
# EKVX NSCLC = test system: EKVX NSCLC
# SNB-19 CNS = test system: SNB-19 CNS
compound,measurement,setting,value
O=c1c2cc(F)ccc2sc2c(Nc3ccncc3)nc3ccccc3c12,GI50,BT-549 breast,3.31 µM
same,TGI,BT-549 breast,16.7 µM
same,GI50,NCI-H522 lung,1.91 µM
same,TGI,NCI-H522 lung,4.82 µM
same,GI50,HT29 colon,1.88 µM
same,TGI,HT29 colon,3.73 µM
same,GI50,RXF 393 renal,1.7 µM
same,TGI,RXF 393 renal,3.41 µM
same,GI50,SN12C renal,2.16 µM
same,TGI,SN12C renal,5.93 µM
same,GI50,SK-MEL-2 melanoma,11.2 µM
same,TGI,SK-MEL-2 melanoma,26.5 µM
same,GI50,SK-MEL-28 melanoma,1.99 µM
same,TGI,SK-MEL-28 melanoma,3.84 µM
same,GI50,MDA-MB-231 breast,1.3 µM
same,TGI,MDA-MB-231 breast,2.67 µM
same,GI50,NCI/ADR-RES ovarian,1.94 µM
same,TGI,NCI/ADR-RES ovarian,4.47 µM
same,GI50,OVCAR-5 ovarian,1.66 µM
same,TGI,OVCAR-5 ovarian,3.11 µM
same,GI50,IGROV1 ovarian,1.55 µM
same,TGI,IGROV1 ovarian,5.55 µM
same,GI50,SW-620 colon,1.5 µM
same,TGI,SW-620 colon,3.16 µM
same,GI50,SF-268 CNS,1.91 µM
same,TGI,SF-268 CNS,4.56 µM
same,GI50,DU-145 prostate,2.49 µM
same,TGI,DU-145 prostate,6.27 µM
same,GI50,SF-295 CNS,4.12 µM
same,TGI,SF-295 CNS,26.7 µM
same,GI50,HCT-15 colon,1.65 µM
same,TGI,HCT-15 colon,3.32 µM
same,GI50,SF-539 CNS,1.72 µM
same,TGI,SF-539 CNS,3.29 µM
same,GI50,CAKI-1 renal,1.53 µM
same,TGI,CAKI-1 renal,3.84 µM
same,GI50,OVCAR-4 ovarian,1.7 µM
same,TGI,OVCAR-4 ovarian,3.53 µM
same,GI50,HL-60(TB) leukemia,13.7 µM
same,TGI,HL-60(TB) leukemia,39.8 µM
same,GI50,KM12 colon,1.87 µM
same,TGI,KM12 colon,3.93 µM
same,GI50,UACC-62 melanoma,1.79 µM
same,TGI,UACC-62 melanoma,3.74 µM
same,GI50,M14 melanoma,1.57 µM
same,TGI,M14 melanoma,3.01 µM
same,GI50,UO-31 renal,1.11 µM
same,TGI,UO-31 renal,2.5 µM
same,GI50,786-0 renal,1.76 µM
same,TGI,786-0 renal,3.39 µM
same,GI50,NCI-H23 lung,1.71 µM
same,TGI,NCI-H23 lung,3.8 µM
same,GI50,MALME-3M melanoma,1.74 µM
same,TGI,MALME-3M melanoma,3.42 µM
same,GI50,OVCAR-8 ovarian,1.78 µM
same,TGI,OVCAR-8 ovarian,4.25 µM
same,GI50,CCRF-CEM leukemia,0.86 µM
same,TGI,CCRF-CEM leukemia,2.92 µM
same,GI50,NCI-H460 lung,1.77 µM
same,TGI,NCI-H460 lung,3.62 µM
same,GI50,HCC-2998 colon,2.67 µM
same,TGI,HCC-2998 colon,7.97 µM
same,GI50,RPMI-8226 leukemia,1.75 µM
same,TGI,RPMI-8226 leukemia,4.43 µM
same,GI50,HCT-116 colon,1.45 µM
same,TGI,HCT-116 colon,3.13 µM
same,GI50,SNB-75 CNS,1.1 µM
same,TGI,SNB-75 CNS,3.64 µM
same,GI50,MDA-MB-435,1.9 µM
same,TGI,MDA-MB-435,3.67 µM
same,GI50,ACHN renal,1.55 µM
same,TGI,ACHN renal,3.13 µM
same,GI50,SK-MEL-5 melanoma,7.29 µM
same,TGI,SK-MEL-5 melanoma,28.2 µM
same,GI50,OVCAR-3 ovarian,1.84 µM
same,TGI,OVCAR-3 ovarian,3.88 µM
same,GI50,COLO 205 colon,1.7 µM
same,TGI,COLO 205 colon,3.94 µM
same,GI50,A498 renal,1.04 µM
same,TGI,A498 renal,2.64 µM
same,GI50,NCI-H226 lung,14.5 µM
same,TGI,NCI-H226 lung,47.8 µM
same,GI50,SK-OV-3 ovarian,14.2 µM
same,TGI,SK-OV-3 ovarian,34.4 µM
same,GI50,UACC-257 melanoma,2.34 µM
same,TGI,UACC-257 melanoma,6.17 µM
C=C(CNCCc1ccc(O)cc1)[C@@H]1CC[C@]2(CO)CC[C@]3(C)[C@H](CC[C@@H]4[C@@]5(C)CCC(NCCc6ccc(O)cc6)C(C)(C)[C@@H]5CC[C@]43C)[C@@H]12 (some centres undefined),GI50,BT-549 breast,1.59 µM
same,TGI,BT-549 breast,3.06 µM
same,GI50,HOP-92 NSCLC,0.667 µM
same,TGI,HOP-92 NSCLC,2.18 µM
same,GI50,PC-3 prostate,0.884 µM
same,TGI,PC-3 prostate,2.35 µM
same,GI50,SW-620 colon,0.178 µM
same,TGI,SW-620 colon,0.352 µM
same,GI50,DU-145 prostate,1.54 µM
same,TGI,DU-145 prostate,3 µM
same,GI50,SF-539 CNS,1.31 µM
same,TGI,SF-539 CNS,2.6 µM
same,GI50,CAKI-1 renal,1.49 µM
same,TGI,CAKI-1 renal,2.85 µM
same,GI50,OVCAR-4 ovarian,1.35 µM
same,TGI,OVCAR-4 ovarian,2.7 µM
same,GI50,UACC-62 melanoma,1.72 µM
same,TGI,UACC-62 melanoma,3.26 µM
same,GI50,UO-31 renal,1.16 µM
same,TGI,UO-31 renal,2.44 µM
same,GI50,OVCAR-8 ovarian,1.61 µM
same,TGI,OVCAR-8 ovarian,4.27 µM
same,GI50,NCI-H460 lung,0.191 µM
same,TGI,NCI-H460 lung,0.362 µM
same,GI50,SNB-75 CNS,1.25 µM
same,TGI,SNB-75 CNS,2.54 µM
same,GI50,MDA-MB-435,0.873 µM
same,TGI,MDA-MB-435,2.24 µM
same,GI50,A498 renal,1.4 µM
same,TGI,A498 renal,2.86 µM
same,GI50,SK-OV-3 ovarian,1.77 µM
same,TGI,SK-OV-3 ovarian,3.26 µM
CCC1(c2ccc(N3C(=O)c4ccccc4C3=O)cc2)CCC(=O)NC1=O (centres undefined),TGI,TK-10 renal,> 10 µM
same,TGI,HT29 colon,> 10 µM
same,TGI,RXF 393 renal,> 10 µM
same,TGI,U251 CNS,> 10 µM
same,TGI,A549 NSCLC,> 10 µM
same,TGI,HOP-92 NSCLC,> 10 µM
same,TGI,SN12C renal,> 10 µM
same,TGI,SK-MEL-28 melanoma,> 10 µM
same,TGI,MDA-MB-231 breast,> 10 µM
same,TGI,NCI/ADR-RES ovarian,> 10 µM
same,TGI,PC-3 prostate,> 10 µM
same,TGI,OVCAR-5 ovarian,> 10 µM
same,TGI,IGROV1 ovarian,> 10 µM
same,TGI,SW-620 colon,> 10 µM
same,TGI,SF-268 CNS,> 10 µM
same,TGI,DU-145 prostate,> 10 µM
same,TGI,SF-295 CNS,> 10 µM
same,TGI,EKVX NSCLC,> 10 µM
same,TGI,HCT-15 colon,> 10 µM
same,TGI,SF-539 CNS,> 10 µM
same,TGI,CAKI-1 renal,> 10 µM
same,TGI,OVCAR-4 ovarian,> 10 µM
same,TGI,KM12 colon,> 10 µM
same,TGI,M14 melanoma,> 10 µM
same,TGI,UO-31 renal,> 10 µM
same,TGI,SNB-19 CNS,> 10 µM
same,TGI,NCI-H23 lung,> 10 µM
same,TGI,OVCAR-8 ovarian,> 10 µM
same,TGI,HCT-116 colon,> 10 µM
same,TGI,SNB-75 CNS,> 10 µM
same,TGI,MDA-MB-435,> 10 µM
same,TGI,ACHN renal,> 10 µM
same,TGI,SK-MEL-5 melanoma,> 10 µM
same,TGI,OVCAR-3 ovarian,> 10 µM
same,TGI,COLO 205 colon,> 10 µM
same,TGI,NCI-H226 lung,> 10 µM
COc1ccc(CC2C(=O)NC(C)C(=O)N(C)C3C(=O)N(C)C(Cc4ccc(O)c(c4)Oc4ccc(cc4)C3O)C(=O)NC(C)C(=O)NC(C)C(=O)N2C)cc1 (centres undefined) (tested in a mixture with another compound),TGI,BT-549 breast,0.00992 µM
same,TGI,HOP-92 NSCLC,0.0372 µM
same,TGI,NCI-H23 lung,0.051 µM
same,TGI,NCI-H226 lung,0.117 µM
same,TGI,UACC-257 melanoma,0.101 µM and 0.0278 µM
